Laboratory results from patent US9133116B2, “Bicyclic compounds” (PANACEA BIOTEC LTD., priority 2010, dated 2015).
Read-outs that look alike come from different tables or passages of the source. Marks after values point to notes of the source that are not given here.

How the values were obtained:
male SWISS albino mice = test: Forced Swim Test in mice; type: in vivo; conditions: oral, 15 min before test, immobility in last 4 min of 6 min
Protocol: This test was conducted according to the method of Li, X., et al., Metabotropic Glutamate 5 Receptor Antagonism Is Associated with Antidepressant-Like Effects in Mice. J Pharmacol Exp Ther., 319(1):254-259 (2006), with slight modifications.
A test compound was suspended in 0.25% CMC, unless otherwise specified, and this solution was orally administered to male SWISS albino mice (7 to 9 week old). 15 min later, the mice were placed in a water tank having a water depth of 15 cm and a water temperature of 25±1° C. and immediately thereafter allowed to swim for 6 min. Then, a time during which the mouse was immobile (immobility time) was measured for the last 4 min.
Cleversys Software (Forced Swim Scan) was used for carrying out Forced Swim Test in mice.

SERT = molecular target: T1, SERT (Homo sapiens, UniProt P31645); test: Serotonin Binding Assay ([3H]-Citalopram Binding Assay); conditions: NE = Not Effective; for inhibition at 1 µM / inhibition at 0.1 µM: 1 h
T1 construct: purchased Perkin Elmer
Protocol: 2. Serotonin Binding Assay
The Membrane protein of 0.4 mL size vial, with protein concentration of 9.0 mg/ml was bought from Perkin Elmer, stored in −80° C. until required.
[^3H]-Citalopram Binding Assay:
(§1) Each well of 96 well microtitre plate was set up to contain the following:
The microtitre plates were incubated at 25° C. for 60 min; reaction was stopped by filtration in GF/B filter plate (presoaked in 0.5% Polyethylenimine) and then added 50 μL of microscint 40. Radioactivity was measured on Liquid Scintillation counter (Perkin Elmer).

NET = molecular target: T2, NET (Homo sapiens, UniProt P23975); test: Norepinephrine Binding Assay ([3H]-Nisoxetine Binding Assay); conditions: NE = Not Effective; for inhibition at 1 µM / inhibition at 0.1 µM: 1 h
T2 construct: purchased Perkin Elmer
Protocol: 1. Norepinephrine Binding Assay
The Membrane protein of 0.4 mL size vial, with protein concentration of 3.0 mg/ml was bought from Perkin Elmer, stored in −80° C. until required.
[^3H]-Nisoxetine Binding Assay:
as §1
The microtitre plates were incubated at 4° C. for 60 mins; reaction was stopped by filtration in GF/B filter plate (presoaked in 0.5% Polyethylenimine) and then added 50 μl of microscint 40. Radioactivity was measured on Liquid Scintillation counter (Perkin Elmer).

DAT = molecular target: T3, DAT (Homo sapiens, UniProt Q01959); test: Dopamine Binding Assay ([3H]-WIN35,428 Binding Assay); conditions: NE = Not Effective; for inhibition at 1 µM / inhibition at 0.1 µM: 2 h; for inhibition at 0.1 µM: read-out: DAT % WIN 35428 displacement 100 nM, 100 nM test compound
T3 construct: purchased Perkin Elmer
Protocol: 3. Dopamine Binding Assay
The Membrane protein of 0.4 mL size vial, with protein concentration of 12 mg/mL was bought from Perkin Elmer, stored in −80° C. until required.
[^3H]-WIN35,428 Binding Assay:
as §1
The microtitre plates were incubated at 4° C. for 120 min; reaction was stopped by filtration in GF/B filter plate (presoaked in 0.5% Polyethylenimine) and then added 50 μL of microscint 40. Radioactivity was measured on Liquid Scintillation counter (Perkin Elmer).

[1] = 1 μM test compound, read-out: SERT % Citalopram displacement 1 μM
[2] = 1 μM test compound, read-out: NET % Nisoxetine displacement 1 μM
[3] = read-out: SERT % Citalopram displacement 100 nM, 100 nM test compound
[4] = read-out: SERT % Citalopram displacement 1 μM, 1 μM test compound
[5] = read-out: NET % Nisoxetine displacement 1 μM, 1 μM test compound
[6] = read-out: DAT % WIN 35428 displacement 1 μM, 1 μM test compound
[7] = read-out: NET % Nisoxetine displacement 100 nM, 100 nM test compound
[8] = 100 nM test compound, read-out: SERT % Citalopram displacement 100 nM
[9] = 1 μM test compound, read-out: DAT % WIN 35428 displacement 1 μM

T1 sequence (P31645 whole entry): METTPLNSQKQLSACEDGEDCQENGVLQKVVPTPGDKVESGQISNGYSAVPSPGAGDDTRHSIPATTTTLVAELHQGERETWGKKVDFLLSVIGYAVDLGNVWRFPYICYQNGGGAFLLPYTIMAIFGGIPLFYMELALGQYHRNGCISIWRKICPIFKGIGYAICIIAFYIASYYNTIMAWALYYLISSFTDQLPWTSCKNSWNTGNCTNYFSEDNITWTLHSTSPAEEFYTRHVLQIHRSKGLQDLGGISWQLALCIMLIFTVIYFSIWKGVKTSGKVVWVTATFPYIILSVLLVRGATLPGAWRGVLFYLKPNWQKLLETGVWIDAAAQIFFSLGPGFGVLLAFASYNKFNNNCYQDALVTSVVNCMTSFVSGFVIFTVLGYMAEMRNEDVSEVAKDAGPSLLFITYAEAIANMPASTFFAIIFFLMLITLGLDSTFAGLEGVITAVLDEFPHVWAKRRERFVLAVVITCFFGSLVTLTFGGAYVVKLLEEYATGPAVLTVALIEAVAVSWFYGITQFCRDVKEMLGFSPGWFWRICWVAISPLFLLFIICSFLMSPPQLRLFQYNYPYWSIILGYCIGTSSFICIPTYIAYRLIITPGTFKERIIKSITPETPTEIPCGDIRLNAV
T2 sequence (P23975 whole entry): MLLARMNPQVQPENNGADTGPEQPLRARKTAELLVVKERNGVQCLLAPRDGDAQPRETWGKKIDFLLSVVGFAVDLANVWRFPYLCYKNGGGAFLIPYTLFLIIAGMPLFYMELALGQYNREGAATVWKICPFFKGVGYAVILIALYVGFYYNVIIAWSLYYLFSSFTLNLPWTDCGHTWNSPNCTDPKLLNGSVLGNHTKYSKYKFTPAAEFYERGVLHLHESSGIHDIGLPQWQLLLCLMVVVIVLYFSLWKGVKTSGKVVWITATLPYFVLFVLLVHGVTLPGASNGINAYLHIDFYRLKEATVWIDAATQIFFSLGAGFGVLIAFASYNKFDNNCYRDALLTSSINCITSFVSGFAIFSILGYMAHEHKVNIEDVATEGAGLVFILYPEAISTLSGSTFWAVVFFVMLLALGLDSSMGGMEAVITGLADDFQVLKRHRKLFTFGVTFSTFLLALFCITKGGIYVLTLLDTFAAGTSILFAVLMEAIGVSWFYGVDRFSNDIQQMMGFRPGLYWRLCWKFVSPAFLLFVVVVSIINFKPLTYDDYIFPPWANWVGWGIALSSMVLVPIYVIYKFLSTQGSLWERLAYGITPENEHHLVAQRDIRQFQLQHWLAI
T3 sequence (Q01959 whole entry): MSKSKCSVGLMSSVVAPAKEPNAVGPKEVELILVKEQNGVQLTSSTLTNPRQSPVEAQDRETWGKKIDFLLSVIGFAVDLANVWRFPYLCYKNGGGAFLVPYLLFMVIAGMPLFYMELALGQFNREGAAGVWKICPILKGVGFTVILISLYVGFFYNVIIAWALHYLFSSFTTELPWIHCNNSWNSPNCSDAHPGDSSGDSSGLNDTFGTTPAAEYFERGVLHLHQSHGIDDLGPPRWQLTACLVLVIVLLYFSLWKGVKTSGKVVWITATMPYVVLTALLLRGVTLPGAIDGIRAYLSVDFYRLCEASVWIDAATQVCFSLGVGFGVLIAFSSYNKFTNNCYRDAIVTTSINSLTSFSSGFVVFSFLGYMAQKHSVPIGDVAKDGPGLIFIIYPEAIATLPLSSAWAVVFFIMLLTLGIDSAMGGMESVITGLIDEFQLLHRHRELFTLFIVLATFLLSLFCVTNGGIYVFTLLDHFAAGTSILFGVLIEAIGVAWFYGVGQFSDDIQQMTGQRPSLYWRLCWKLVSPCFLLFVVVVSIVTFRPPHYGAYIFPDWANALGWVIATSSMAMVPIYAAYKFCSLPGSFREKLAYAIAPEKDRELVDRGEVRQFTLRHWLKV

CON=CC1C2CNCC12c1ccccc1.Cl (stereo not drawn)
% decrease in immobility time (dose 32 mg/kg) (male SWISS albino mice; suspended in 0.25% CMC): 60.4 ± 12.6%

CON=CC1C2CNCC12c1ccc(Cl)cc1.Cl (stereo not drawn)
% decrease in immobility time (dose 32 mg/kg) (male SWISS albino mice; vehicle de-ionized water): 50.2 ± 14.7^z %

Clc1ccc(C(=NOc2ccccc2)C2C3CNCC32)cc1Cl (stereo not drawn)
inhibition at 1 µM (SERT; [1]): 61.4%
inhibition at 1 µM (NET; [2]): 19.1%

CON=CC1C2CNCC12c1ccc(Cl)cc1 (stereo not drawn)
inhibition at 0.1 µM (SERT; [3]): 37.8%
inhibition at 1 µM (SERT; [4]): 85.6%
inhibition at 1 µM (NET; [5]): 54.5%
inhibition at 1 µM (DAT; [6]): 29.9%

CCON=C(c1ccc(Cl)c(Cl)c1)C1C2CNCC21 (stereo not drawn)
inhibition at 0.1 µM (SERT; [3]): 49.8%
inhibition at 1 µM (SERT; [4]): 87.5%
inhibition at 0.1 µM (NET; [7]): 18.2%
inhibition at 1 µM (NET; [5]): 61.5%
inhibition at 1 µM (DAT; [6]): 71%

CON=C(c1ccc(Cl)c(Cl)c1)C1C2CNCC21.Cl (stereo not drawn) [drawing 66]
inhibition at 0.1 µM (SERT; [3]): 43.1%
inhibition at 1 µM (SERT; [4]): 84.8%
inhibition at 0.1 µM (NET; [7]): 15.6%
inhibition at 1 µM (NET; [5]): 75.6%
DAT % WIN 35428 displacement 1 μM (DAT; 1 μM test compound): 32.76%

Fc1ccc(CON=CC2C3CNCC23c2ccc(Cl)c(Cl)c2)cc1 (stereo not drawn)
inhibition at 0.1 µM (SERT; [8]): 12.5%
inhibition at 1 µM (SERT; [1]): 88.8%
inhibition at 1 µM (NET; [2]): 74.2%
inhibition at 1 µM (DAT; [9]): 40.9%

CON=C(c1ccc(Cl)c(Cl)c1)C1C2CNCC21 (stereo not drawn) [drawing 72]
SERT % Citalopram displacement 100 nM (SERT; 100 nM test compound): 50.25%
SERT % Citalopram displacement 1 μM (SERT; 1 μM test compound): 90.07%
NET % Nisoxetine displacement 100 nM (NET; 100 nM test compound): 24.48%
NET % Nisoxetine displacement 1 μM (NET; 1 μM test compound): 75.97%
DAT % WIN 35428 displacement 1 μM (DAT; 1 μM test compound): 64.58%
inhibition at 0.1 µM (DAT): 28.1%

CON=CC1C2CNCC12c1ccc(Cl)c(Cl)c1.Cl (stereo not drawn)
% decrease in immobility time (dose 32 mg/kg) (male SWISS albino mice; vehicle de-ionized water): 87.5 ± 4.1^z %

C=CCON=C(c1ccc(Cl)c(Cl)c1)C1C2CNCC21 (stereo not drawn)
inhibition at 0.1 µM (SERT; [8]): 72.6%
inhibition at 1 µM (SERT; [1]): 94.4%
inhibition at 0.1 µM (NET; 100 nM test compound, read-out: NET % Nisoxetine displacement 100 nM): 14.3%
inhibition at 1 µM (NET; [2]): 71.3%
inhibition at 1 µM (DAT; [9]): 78%

Clc1ccc(C23CNCC2C3C=NOCc2ccccc2)cc1Cl (stereo not drawn)
inhibition at 0.1 µM (SERT; [3]): 23.3%
inhibition at 1 µM (SERT; [4]): 89%
inhibition at 0.1 µM (NET; [7]): 34.6%
inhibition at 1 µM (NET; [5]): 73.6%
inhibition at 0.1 µM (DAT): 27%
inhibition at 1 µM (DAT; [6]): 39%

CON=C(c1ccc(Cl)c(Cl)c1)C1C2CNCC21.Cl (stereo not drawn)
% decrease in immobility time (dose 32 mg/kg) (male SWISS albino mice; vehicle de-ionized water): 80.0 ± 3.8^z %

CON=C(c1ccc2ccccc2c1)C1C2CNCC21 (stereo not drawn)
inhibition at 0.1 µM (SERT; [3]): 77.2%
inhibition at 1 µM (SERT; [4]): 93.4%
inhibition at 0.1 µM (NET; [7]): 21.8%
inhibition at 1 µM (NET; [5]): 60.5%

CON=CC1C2CNCC12c1ccccc1 (stereo not drawn)
inhibition at 0.1 µM (SERT; [3]): 39.2%
inhibition at 1 µM (SERT; [4]): 79.9%

CON=CC1C2CNCC12c1ccc(F)cc1.Cl (stereo not drawn)
% decrease in immobility time (dose 32 mg/kg) (male SWISS albino mice; vehicle de-ionized water): 55.1 ± 13.0^z %

CCON=CC1C2CNCC12c1ccc(Cl)c(Cl)c1.Cl (stereo not drawn)
% decrease in immobility time (dose 32 mg/kg) (male SWISS albino mice; suspended in 0.25% CMC): 83.1 ± 9.6%

Clc1ccc(C(=NOCC2CC2)C2C3CNCC32)cc1Cl (stereo not drawn)
inhibition at 0.1 µM (SERT; [8]): 69.8%
inhibition at 1 µM (SERT; [1]): 95.5%
inhibition at 1 µM (NET; [2]): 33.9%
inhibition at 1 µM (DAT; [9]): 68.7%

CON=CC1C2CNCC12c1ccc(Cl)c(Cl)c1 (stereo not drawn)
inhibition at 0.1 µM (SERT; [3]): 65%
inhibition at 1 µM (SERT; [4]): 91.8%
inhibition at 0.1 µM (NET; [7]): 37.4%
inhibition at 1 µM (NET; [5]): 82.3%
inhibition at 0.1 µM (DAT): 30.6%
inhibition at 1 µM (DAT; [6]): 66.3%

CCON=CC1C2CNCC12c1ccc(Cl)c(Cl)c1 (stereo not drawn)
inhibition at 0.1 µM (SERT; [3]): 83.7%
inhibition at 1 µM (SERT; [4]): 94.4%
inhibition at 0.1 µM (DAT): 16.7%
inhibition at 1 µM (DAT; [6]): 71.8%

Clc1ccc(C(=NOCc2ccccc2)C2C3CNCC32)cc1Cl (stereo not drawn)
inhibition at 0.1 µM (SERT; [8]): 30.4%
inhibition at 1 µM (SERT; [1]): 85.8%
inhibition at 1 µM (NET; [2]): 27.2%
inhibition at 1 µM (DAT; [9]): 36%

CON=CC1C2CNCC12c1ccc(F)cc1 (stereo not drawn)
inhibition at 0.1 µM (SERT; [3]): 43.5%
inhibition at 1 µM (SERT; [4]): 85.1%

CON=C(c1ccccc1)C1C2CNCC21 (stereo not drawn)
inhibition at 0.1 µM (SERT; [3]): 18.4%
inhibition at 1 µM (SERT; [4]): 27.5%

ON=C(c1ccc(Cl)c(Cl)c1)C1C2CNCC21 (stereo not drawn)
inhibition at 0.1 µM (SERT; [3]): 29.8%
inhibition at 1 µM (SERT; [4]): 74.8%
inhibition at 1 µM (NET; [5]): 25.1%
inhibition at 1 µM (DAT; [6]): 49.6%
